In experiment [1] the target is Dual specificity protein kinase CLK4 (Homo sapiens, UniProt Q9HAZ1).
Experiment [2] has as its target T1, MAP/microtubule affinity-regulating kinase 4 (Homo sapiens, UniProt Q96L34).
T1 sequence (Q96L34 whole entry): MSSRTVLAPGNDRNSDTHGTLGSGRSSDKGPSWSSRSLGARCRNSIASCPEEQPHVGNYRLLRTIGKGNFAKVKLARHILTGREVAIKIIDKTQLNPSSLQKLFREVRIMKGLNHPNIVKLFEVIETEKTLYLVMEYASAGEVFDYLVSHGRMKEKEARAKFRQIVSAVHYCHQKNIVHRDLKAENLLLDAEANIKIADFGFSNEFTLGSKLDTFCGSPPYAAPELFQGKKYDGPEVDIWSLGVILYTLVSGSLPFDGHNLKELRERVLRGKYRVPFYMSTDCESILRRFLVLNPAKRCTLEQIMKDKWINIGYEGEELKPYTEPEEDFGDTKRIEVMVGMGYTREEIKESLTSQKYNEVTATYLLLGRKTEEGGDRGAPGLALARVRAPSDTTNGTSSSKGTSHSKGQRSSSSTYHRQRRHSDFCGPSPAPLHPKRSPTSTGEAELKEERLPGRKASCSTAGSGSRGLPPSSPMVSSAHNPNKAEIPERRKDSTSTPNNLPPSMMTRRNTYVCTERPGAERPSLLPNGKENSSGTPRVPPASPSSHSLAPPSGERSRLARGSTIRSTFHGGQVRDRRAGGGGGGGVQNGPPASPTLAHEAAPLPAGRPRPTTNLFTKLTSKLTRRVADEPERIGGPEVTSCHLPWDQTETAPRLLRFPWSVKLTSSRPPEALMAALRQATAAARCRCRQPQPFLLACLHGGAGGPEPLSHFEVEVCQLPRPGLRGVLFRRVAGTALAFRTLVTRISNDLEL

Experiment [3] addresses T2, Dual specificity protein kinase TTK (Homo sapiens, UniProt P33981).
T2 sequence (P33981 whole entry): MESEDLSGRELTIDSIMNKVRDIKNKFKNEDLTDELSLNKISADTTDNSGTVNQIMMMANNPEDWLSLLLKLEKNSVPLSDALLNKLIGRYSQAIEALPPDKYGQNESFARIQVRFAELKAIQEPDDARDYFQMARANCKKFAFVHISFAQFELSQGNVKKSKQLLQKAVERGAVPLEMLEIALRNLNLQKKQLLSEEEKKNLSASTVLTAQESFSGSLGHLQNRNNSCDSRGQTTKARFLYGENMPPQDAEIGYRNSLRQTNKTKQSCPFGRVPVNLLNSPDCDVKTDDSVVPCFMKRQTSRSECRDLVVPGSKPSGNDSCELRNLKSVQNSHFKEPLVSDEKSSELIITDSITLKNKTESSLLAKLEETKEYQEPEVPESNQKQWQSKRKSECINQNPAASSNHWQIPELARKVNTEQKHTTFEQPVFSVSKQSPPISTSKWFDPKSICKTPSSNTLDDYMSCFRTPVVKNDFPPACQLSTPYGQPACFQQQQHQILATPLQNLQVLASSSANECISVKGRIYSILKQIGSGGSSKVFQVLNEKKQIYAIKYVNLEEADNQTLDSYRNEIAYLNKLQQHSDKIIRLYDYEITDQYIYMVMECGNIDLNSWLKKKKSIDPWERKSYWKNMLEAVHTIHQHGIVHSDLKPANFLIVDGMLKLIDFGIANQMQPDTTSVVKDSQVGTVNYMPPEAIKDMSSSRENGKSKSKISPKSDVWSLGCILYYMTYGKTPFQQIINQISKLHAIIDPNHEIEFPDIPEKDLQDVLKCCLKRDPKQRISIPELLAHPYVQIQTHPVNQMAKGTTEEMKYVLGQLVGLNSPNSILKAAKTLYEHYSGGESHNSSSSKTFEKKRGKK

The target of experiment [4] is Serine/threonine-protein kinase PAK 6 (Homo sapiens, UniProt Q9NQU5).

The source made the active and inactive calls.
Also: in the data inactive means no Kd found up to 30 µM.

Serine/threonine-protein kinase PAK 6, sequence (Q9NQU5 whole entry): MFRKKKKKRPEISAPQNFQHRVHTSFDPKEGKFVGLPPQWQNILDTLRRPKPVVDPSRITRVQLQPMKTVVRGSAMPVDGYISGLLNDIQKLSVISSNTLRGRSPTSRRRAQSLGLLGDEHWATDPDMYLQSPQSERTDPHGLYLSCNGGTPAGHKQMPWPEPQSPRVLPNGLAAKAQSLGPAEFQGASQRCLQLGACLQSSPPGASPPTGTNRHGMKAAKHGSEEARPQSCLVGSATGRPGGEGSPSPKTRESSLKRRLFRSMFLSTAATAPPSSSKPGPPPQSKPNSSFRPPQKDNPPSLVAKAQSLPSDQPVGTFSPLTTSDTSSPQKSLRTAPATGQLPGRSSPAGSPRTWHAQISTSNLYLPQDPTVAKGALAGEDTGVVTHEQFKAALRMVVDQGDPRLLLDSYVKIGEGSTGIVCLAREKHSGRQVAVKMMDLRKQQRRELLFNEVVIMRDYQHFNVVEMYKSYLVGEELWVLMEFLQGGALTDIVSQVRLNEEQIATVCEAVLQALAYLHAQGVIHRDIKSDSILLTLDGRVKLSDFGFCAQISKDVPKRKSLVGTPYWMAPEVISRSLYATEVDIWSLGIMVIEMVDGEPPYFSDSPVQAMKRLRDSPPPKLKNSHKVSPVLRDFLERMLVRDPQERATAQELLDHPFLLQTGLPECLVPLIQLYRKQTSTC
Dual specificity protein kinase CLK4, sequence (Q9HAZ1 whole entry): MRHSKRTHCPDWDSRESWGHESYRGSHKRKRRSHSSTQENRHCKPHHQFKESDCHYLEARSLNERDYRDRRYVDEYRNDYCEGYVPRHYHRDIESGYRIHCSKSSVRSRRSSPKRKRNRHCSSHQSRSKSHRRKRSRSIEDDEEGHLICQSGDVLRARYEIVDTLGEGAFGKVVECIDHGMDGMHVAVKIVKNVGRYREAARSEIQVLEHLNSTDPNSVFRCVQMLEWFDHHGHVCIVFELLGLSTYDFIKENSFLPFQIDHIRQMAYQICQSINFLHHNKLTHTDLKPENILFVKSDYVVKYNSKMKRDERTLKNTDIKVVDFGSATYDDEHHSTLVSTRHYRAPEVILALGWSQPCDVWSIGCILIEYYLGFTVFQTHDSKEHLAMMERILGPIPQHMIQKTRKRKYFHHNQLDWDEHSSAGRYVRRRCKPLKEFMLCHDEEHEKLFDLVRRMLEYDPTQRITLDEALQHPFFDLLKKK

With `S=C(NCc1ccc2c(c1)OCO2)N1CCN(c2ncnc3c2oc2ccccc23)CC1` [AMUVATINIB], the Kd in experiment [1] and in experiment [2] was > 30 µM (inactive) each time.
In the case of `O=c1[nH]c([C@@H]2CCCN2)nc2c1oc1ccc(Cl)cc12`, the Kd in experiment [2] is > 30 µM (inactive).
With `O=C(O)c1ccc2c(c1)nc(Nc1cccc(Cl)c1)c1ccncc12` [SILMITASERTIB], the Kd in experiment [1] and in experiment [3] was > 30 µM (inactive) each time.
Regarding `c1cc(OCCN2CCCCC2)cc(-c2n[nH]c3ccc(-c4nc[nH]n4)cc23)c1` [CC-401], the Kd in experiment [1], in experiment [2], in experiment [4] and in experiment [3] was > 30 µM (inactive) each time.
As for `COc1cc2ncnc(Nc3ccc(O)cc3)c2cc1OC` [WHI-P131], the Kd in experiment [1], in experiment [4] and in experiment [3] was > 30 µM (inactive) throughout.
Regarding `CNC(=O)c1ccc(Nc2ncc(C(F)(F)F)c(NCc3nccnc3N(C)S(C)(=O)=O)n2)cc1` [DEFACTINIB], the Kd in experiment [2], in experiment [4] and in experiment [3] was > 30 µM (inactive) each time.
`CN(c1ncccc1CNc1nc(Nc2ccc3c(c2)CC(=O)N3)ncc1C(F)(F)F)S(C)(=O)=O` [PF-00562271]: the Kd in experiment [1] and in experiment [4] was > 30 µM (inactive) throughout.
Take `CN1CCN(c2nc(C3=C(c4c[nH]c5ccccc45)C(=O)NC3=O)c3ccccc3n2)CC1` [SOTRASTAURIN]: the Kd in experiment [1], in experiment [2], in experiment [4] and in experiment [3] was > 30 µM (inactive) throughout.
Regarding `N#CCNC(=O)c1ccc(-c2ccnc(Nc3ccc(N4CCOCC4)cc3)n2)cc1` [MOMELOTINIB], the Kd in experiment [3] is > 30 µM (inactive).
In the case of `C[C@@H]1COC(Nc2ccc3ncnc(Nc4ccc(OCc5nccs5)c(Cl)c4)c3c2)=N1` [VARLITINIB], the Kd in experiment [1], in experiment [2], in experiment [4] and in experiment [3] was > 30 µM (inactive) in each case.
For `C=CC(=O)Nc1cc(Nc2nccc(-c3cn(C)c4ccccc34)n2)c(OC)cc1N(C)CCN(C)C` [OSIMERTINIB], the Kd in experiment [1] and in experiment [2] was > 30 µM (inactive) in each case.
Regarding `C=CCN(/C=C1/C(=O)O[C@H](COC)[C@@]2(C)C1=C(O)C(=O)C1=C2[C@H](OC(C)=O)C[C@]2(C)C(=O)CC[C@@H]12)CC=C` [SONOLISIB], the Kd in experiment [4] is > 30 µM (inactive).
Still for that read-out and setting: then `CCN(CCCOc1ccc2c(Nc3cc(CC(=O)Nc4cccc(F)c4)n[nH]3)ncnc2c1)CCOP(=O)(O)O` [BARASERTIB], with > 30 µM (inactive).
`Cn1c(=O)c(F)c(Nc2ccc(I)cc2F)c2c(=O)n(C[C@@H](O)CO)cnc21` [TAK-733]: the Kd in experiment [2], in experiment [4] and in experiment [3] was > 30 µM (inactive) throughout.
With `FC(F)(F)c1ccc(CNc2ccc(Cc3c[nH]c4ncc(Cl)cc34)cn2)cn1` [PEXIDARTINIB], the Kd in experiment [1], in experiment [2] and in experiment [3] was > 30 µM (inactive) in each case.
On to `CC(C)(O)CC(=O)NCCn1ccc2ncnc(Nc3ccc(Oc4cccc(C(F)(F)F)c4)c(Cl)c3)c21` [TAK-285], for which the Kd in experiment [2] was > 30 µM (inactive).
Turning to `Cc1cc(C(=O)Nc2cc(Oc3ccc4nc(NC(=O)C5CC5)cn4n3)ccc2C)n(C)n1` [TAK-593], the Kd in experiment [1] and in experiment [2] was > 30 µM (inactive) each time.
As to `CCc1nc(C(N)=O)c(Nc2ccc(N3CCC(N4CCN(C)CC4)CC3)c(OC)c2)nc1NC1CCOCC1` [GILTERITINIB], the Kd in experiment [1], in experiment [2] and in experiment [3] was > 30 µM (inactive) each time.
As to `CCOc1ccn(-c2ccc(F)cc2)c(=O)c1C(=O)Nc1ccc(Oc2ccnc(N)c2Cl)c(F)c1` [BMS-777607], the Kd in experiment [2] was > 30 µM (inactive).
With `COc1cc2ncnc3c2cc1OCCCCCN(C)Cc1ccc(Br)cc1N3` [JNJ-26483327], the Kd in experiment [2] is > 30 µM (inactive).
Consider `C=CC(=O)Nc1cccc(Nc2nc(Nc3ccc(N4CCN(C(C)=O)CC4)cc3OC)ncc2C(F)(F)F)c1` [ROCILETINIB], for which the Kd in experiment [1] was > 30 µM (inactive).
Consider `COc1cc2ncnc(Nc3ccc(F)c(Cl)c3)c2cc1NC(=O)/C=C/CN1CCCCC1` [DACOMITINIB ANHYDROUS], for which the Kd in experiment [2] was > 30 µM (inactive).
Regarding `O=S(=O)(c1cccc2cnccc12)N1CCCNCC1` [FASUDIL], the Kd in experiment [2] and in experiment [3] was > 30 µM (inactive) in each case.
Turning to `Cc1c(NC(=O)OC[C@@H]2COCCN2)cn2ncnc(Nc3ccc4c(cnn4Cc4cccc(F)c4)c3)c12` [AC-480], the Kd in experiment [2], in experiment [4] and in experiment [3] was > 30 µM (inactive) in each case.
On to `Cc1ccc(C(=O)Nc2ccc(Oc3cc4cnn(C)c4cc3-c3cn[nH]c3)c(F)c2)c(=O)n1-c1ccc(F)cc1` [MERESTINIB], for which the Kd in experiment [1], in experiment [2], in experiment [4] and in experiment [3] was > 30 µM (inactive) each time.
With `C[C@]1(O)C[C@@H](c2nc(-c3ccc4ccc(-c5ccccc5)nc4c3)c3c(N)nccn32)C1` [LINSITINIB], the Kd in experiment [2], in experiment [4] and in experiment [3] was > 30 µM (inactive) each time.
With `CNC(=O)c1cc(COc2nnc(Nc3ccc(Cl)cc3)c3ccoc23)ccn1` [TELATINIB], the Kd in experiment [2], in experiment [4] and in experiment [3] was > 30 µM (inactive) each time.
For the compound `CNC(=O)c1cccc(-c2ccc3c(N4CCOC[C@@H]4C)nc(N4CCOC[C@@H]4C)nc3n2)c1` [VISTUSERTIB], the Kd in experiment [1], in experiment [2], in experiment [4] and in experiment [3] was > 30 µM (inactive) throughout.
Regarding `CC(C)CC(=O)Nc1[nH]nc2c1CN(C(=O)C1CCN(C)CC1)C2(C)C` [PHA-793887], in experiment [2], the Kd was > 30 µM (inactive).
`O=C(NOC[C@H](O)CO)c1ccc(F)c(F)c1Nc1ccc(I)cc1F` [MIRDAMETINIB]: the Kd in experiment [1], in experiment [2], in experiment [4] and in experiment [3] was > 30 µM (inactive) each time.
Take `COc1ccc2c(OCc3nnc4ccc(-c5ccccc5)nn34)ccnc2c1` [AMG-208]: the Kd in experiment [1] and in experiment [2] was > 30 µM (inactive) in each case.
For the compound `COc1ccc(-c2ccc3ncc4c(c3c2)n(-c2ccc(N3CCNCC3)c(C(F)(F)F)c2)c(=O)n4C)cn1` [BGT-226 FREE BASE], the Kd in experiment [2], in experiment [4] and in experiment [3] was > 30 µM (inactive) throughout.

(Values after ChEMBL document CHEMBL3991601, “The target landscape of clinical kinase drugs” (Science, 2017).)
